Results taken from US20210163976A1, “GENETICALLY ALTERED PLANTS EXPRESSING HETEROLOGOUS RECEPTORS THAT RECOGNIZE LIPO-CHITOOLIGOSACCHARIDES” (Aarhus Universitet, priority 2018, published 2021).
Substitutions are numbered along the chain they refer to. Names may count otherwise. “Also recorded” adds a separate entry of the source.

T1: Medicago NFP ectodomain (NFP-ECD, WT) (Medicago truncatula, UniProt Q0GXS4)
T1 construct: The Medicago truncatula NFP ectodomain (residues 28-246) was codon-optimized; AcMNPV gp67 signal peptide (replaces native signal peptide 1-27) (N); made in house; host or cells: Sf9 (Spodoptera frugiperda), baculovirus, secreted into medium
T1 sequence (Q0GXS4 28-246): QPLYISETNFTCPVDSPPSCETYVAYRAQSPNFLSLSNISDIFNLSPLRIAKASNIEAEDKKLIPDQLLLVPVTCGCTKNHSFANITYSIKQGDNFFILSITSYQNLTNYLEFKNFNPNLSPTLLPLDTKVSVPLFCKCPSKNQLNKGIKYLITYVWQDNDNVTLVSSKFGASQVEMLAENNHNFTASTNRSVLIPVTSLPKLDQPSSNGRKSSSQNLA

B1: wild type Nfp gene: wild type Medicago NFP LysM receptor transgene (SEQ ID NO: 1) (protein)
chain: MSAFFLPSSSHALFLVLMLFFLTNISAQPLYISETNFTCPVDSPPSCETYVAYRAQSPNFLSLSNISDIFNLSPLRIAKASNIEAEDKKLIPDQLLLVPVTCGCTKNHSFANITYSIKQGDNFFILSITSYQNLTNYLEFKNFNPNLSPTLLPLDTKVSVPLFCKCPSKNQLNKGIKYLITYVWQDNDNVTLVSSKFGASQVEMLAENNHNFTASTNRSVLIPVTSLPKLDQPSSNGRKSSSQNLALIIGISLGSAFFILVLTLSLVYVYCLKMKRLNRSTSSSETADKLLSGVSGYVSKPTMYEIDAIMEGTTNLSDNCKIGESVYKANIDGRVLAVKKIKKDASEELKILQKVNHGNLVKLMGVSSDNDGNCFLVYEYAENGSLEEWLFSESSKTSNSVVSLTWSQRITIAMDVAIGLQYMHEHTYPRIIHRDITTSNILLGSNFKAKIANFGMARTSTNSMMPKIDVFAFGVVLIELLTGKKAMTTKENGEVVILWKDFWKIFDLEGNREERLRKWMDPKLESFYPIDNALSLASLAVNCTADKSLSRPTIAEIVLCLSLLNQPSSEPMLERSLTSGLDAEATHVVTSVIAR
B2: Q119F: NFP substitution variant outside the hydrophobic patch in LysM2 (protein, UniProt Q0GXS4 28-595, looked up, variant Q119F)
Serine/threonine …: QPLYISETNFTCPVDSPPSCETYVAYRAQSPNFLSLSNISDIFNLSPLRIAKASNIEAEDKKLIPDQLLLVPVTCGCTKNHSFANITYSIKFGDNFFILSITSYQNLTNYLEFKNFNPNLSPTLLPLDTKVSVPLFCKCPSKNQLNKGIKYLITYVWQDNDNVTLVSSKFGASQVEMLAENNHNFTASTNRSVLIPVTSLPKLDQPSSNGRKSSSQNLALIIGISLGSAFFILVLTLSLVYVYCLKMKRLNRSTSSSETADKLLSGVSGYVSKPTMYEIDAIMEGTTNLSDNCKIGESVYKANIDGRVLAVKKIKKDASEELKILQKVNHGNLVKLMGVSSDNDGNCFLVYEYAENGSLEEWLFSESSKTSNSVVSLTWSQRITIAMDVAIGLQYMHEHTYPRIIHRDITTSNILLGSNFKAKIANFGMARTSTNSMMPKIDVFAFGVVLIELLTGKKAMTTKENGEVVILWKDFWKIFDLEGNREERLRKWMDPKLESFYPIDNALSLASLAVNCTADKSLSRPTIAEIVLCLSLLNQPSSEPMLERSLTSGLDAEATHVVTSVIAR
B3: K141E: NFP substitution variant outside the hydrophobic patch in LysM2 (protein, UniProt Q0GXS4 28-595, looked up, variant K141E)
Serine/threonine …: B2 Serine/threonine … with F92Q, K114E
B4: T150H: NFP substitution variant outside the hydrophobic patch in LysM2 (protein, UniProt Q0GXS4 28-595, looked up, variant T150H)
Serine/threonine …: B2 Serine/threonine … with F92Q, T123H
B5: T216F: NFP substitution variant in LysM3 (protein, UniProt Q0GXS4 28-595, looked up, variant T216F)
Serine/threonine …: B2 Serine/threonine … with F92Q, T189F
B6: NFP L147D L154D: double-mutated NFP, leucine residues L147 and L154 replaced with aspartate (protein, UniProt Q0GXS4 28-246, looked up, variant L147D L154D)
extracellular domain: T1 sequence (Q0GXS4 28-246) with L120D, L127D
modifications: extracellular domain
notes: double-mutated NFP, leucine residues L147 and L154 replaced with aspartate

What was measured:
[1] = molecular target: T1, Medicago NFP ectodomain (NFP-ECD, WT); assay: Biolayer interferometry (BLI) binding of NFP-ECD to immobilized biotinylated ligands; settings: for binding to NFP of mutated LCOs: FIG. 3B, Example 4; for reduction of binding to NFP-ECD compared to wild type S. meliloti LCO-IV: FIGS. 15D-15E
Description: (§1) Expression and purification of Medicago NFP ectodomain: The Medicago truncatula NFP ectodomain (residues 28-246) was codon-optimized for insect cell expression (Genscript, Piscataway, USA) and cloned into the pOET4 baculovirus transfer vector (Oxford Expression Technologies). The native NFP signal peptide (residues 1-27, predicted by SignalP 4.1) was replaced with the AcMNPV gp67 signal peptide to facilitate secretion and a hexa-histidine tag was added to the C-terminus. Point mutants of NFP were engineered using site-directed mutagenesis. Recombinant baculoviruses were produced in Sf9 cells (Spodoptera frugiperda) using the FlashBac Gold kit (Oxford Expression technologies) according to the manufacturer's instructions with Lipofectin (ThermoFisher Scientific) as a transfection reagent. Protein expression was performed as follows. Suspension-cultured Sf9 cells were maintained with shaking at 299 K in serum-free MAX-XP (BD-Biosciences, discontinued) or HyClone SFX (GE Healthcare) medium supplemented with 1% Pen-Strep (10000 U/ml, Life technologies) and 1% CD lipid concentrate (Gibco). Protein expression was induced by adding recombinant passage 3 virus once the Sf9 cells reached a cell density of 1.0*10^7^6 cells/ml. After 5-7 days of expression, medium supernatant containing NFP ectodomains was harvested by centrifugation. This was followed by an overnight dialysis step against 50 mM Tris-HCl pH 8, 200 mM NaCl at 277 K. The NFP ectodomain was enriched by two subsequent steps of Ni-IMAC purification (HisTrap excel/HisTrap HP, both GE Healthcare). For crystallography experiments, N-glycans were removed using the endoglycosidase PNGase F (1:15 (w/w), room temperature, overnight). As a final purification step, NFP ectodomain was purified by SEC on a Superdex 200 10/300 or HiLoad Superdex 200 16/600 (both GE Healthcare) in phosphate buffered saline at pH 7.2 supplemented to a total of 500 mM NaCl (for binding assays) or 50 mM Tris-HCl, 200 mM NaCl (for crystallography). NFP ectodomain elutes as a single, homogeneous peak corresponding to a monomer. Point mutated versions of NFP were expressed and purified following the same protocol.
(§2) Biolayer interferometry (BLI): Binding of NFP and mutated versions of NFP to ligands was measured on an Octet RED 96 system (Pall ForteBio). The ligands used were LCO-IV (from S. meliloti), LCO-V (from S. meliloti), LCO-V (from M. loti), and C06 (from M. loti). S. meliloti LCO consists of a tetrameric/pentameric N-acetylglucosamine backbone that is 0-sulfated on the reducing terminal residue, 0-acetylated on the non-reducing terminal residue, and mono-N-acylated by unsaturated C16 acyl groups. M. loti LCO is a pentameric N-acetylglucosamine with a cis-vaccenic acid and a carbamoyl group at the non-reducing terminal residue together with a 2,4-O-acetylfucose at the reducing terminal residue. Biotinylated ligand conjugates were immobilized on streptavidin biosensors (kinetic quality, Pall ForteBio) at a concentration of 125-250 nM for 5 minutes. The binding assays using the S. meliloti ligands (LCO-IV and LCO-V) were replicated seven times, while the binding assays using the M loti ligands (LCO-V and C06) were replicated six times. Data analysis was performed in GraphPad Prism 6 software (GraphPad Software, Inc.). Equilibrium dissociation constants derived from the steady-state were determined by applying a non-linear regression (one site, specific binding) to the response at equilibrium plotted against the protein concentration. Kinetic parameters were determined by non-linear regression (association followed by dissociation) on the subtracted data.
(§3) Mutated lipochitooligosaccharide (LCO) ligands: S. meliloti LCO consists of a tetrameric/pentameric N-acetylglucosamine backbone that is O-sulfated on the reducing terminal residue, O-acetylated on the non-reducing terminal residue, and mono-N-acylated by unsaturated C16 acyl groups. […]

[2] = molecular target: T2, Medicago truncatula NFP ectodomain (NFP-ECD, residues 28-246), wild type, SEQ ID NO: 1 (Medicago truncatula, UniProt Q0GXS4); assay: Biolayer interferometry (BLI) binding of NFP / NFP-ECD to immobilized LCO and CO ligands; settings: for Binding of mutated LCOs to NFP (in words): ligand binding tests, FIG. 3B
T2 construct: The Medicago truncatula NFP ectodomain (residues 28-246); AcMNPV gp67 signal peptide (replaces native signal peptide 1-27) (N); hexa-histidine tag (C); made in house; host or cells: Sf9 cells (Spodoptera frugiperda), baculovirus
Description: as §1, §2, §3

Medicago nfp mutants = assay: Complementation assay (nodulation) by hairy root transformation; type: in vivo; settings: for nodules per plant (complementation): 49 days after inoculation with S. meliloti strain 1021, FIG. 6A
Text: Complementation assay: Construct assembly, plant growth conditions, hairy root transformations, nodulation and ROS assays were generally conducted as described in Bozsoki et al. (2017) (Bozsoki Z, Cheng J, Feng F, Gysel K, Vinther M, Andersen KR, Oldroyd G, Blaise M, Radutoiu S, Stougaard J (2017) Receptor-mediated chitin perception in legume roots is functionally separable from Nod factor perception. Proc Natl Acad Sci 114: E8118-E8127). The tested transgenes were the mutated LysM receptors described in Example 5. In addition, NFP substitution variants replacing residues outside the hydrophobic patch in LysM2 (Q119F, K141E and T150H) or in LysM3 (T216F) were tested.

| Molecule | binding to NFP of mutated LCOs [1] | Binding of mutated LCOs to NFP (in words) [2] | nodules per plant (complementation) (Medicago nfp mutants) | also measured |
| --- | --- | --- | --- | --- |
| CC(=O)N[C@H]1[C@H](O[C@H]2[C@H](O)[C@@H](NC(C)=O)[C@H](O[C@H]3[C@H](O)[C@@H](NC(C)=O)C(O)O[C@@H]3CO)O[C@@H]2CO)O[C@H](CO)[C@@H](O[C@@H]2O[C@H](CO)[C@@H](O[C@@H]3O[C@H](CO)[C@@H](O[C@@H]4O[C@H](CO)[C@@H](O)[C@H](O)[C@H]4NC(C)=O)[C@H](O)[C@H]3NC(C)=O)[C@H](O)[C@H]2NC(C)=O)[C@@H]1O (stereo partly shown) [M. loti C06] |  |  |  | NFP binding (BLI) ([1]; BLI, FIG. 2B, six replicates): not detected; also recorded: does not bind; Binding to NFP (in words) ([2]; BLI, FIG. 2B, six replicates): neither was NFP binding; also recorded: does not bind |
| CCCCCC/C=C\CCCCCCCCCC(=O)N[C@H]1[C@H](O[C@H]2[C@H](O)[C@@H](NC(C)=O)[C@H](O[C@H]3[C@H](O)[C@@H](NC(C)=O)[C@H](O[C@H]4[C@H](O)[C@@H](NC(C)=O)C(O)O[C@@H]4COS(=O)(=O)O)O[C@@H]3CO)O[C@@H]2CO)O[C@H](COC(C)=O)[C@@H](O)[C@@H]1O (stereo partly shown) [nodFE-LCO-IV] | reduced NFP binding | reduced NFP binding |  | NFP-ECD binding (BLI) ([1]; further BLI assays, FIGS. 15B-15E): no significant binding; Binding to NFP-ECD (in words) ([2]; further BLI assays, FIGS. 15B-15E, analyte 1.56-100 μM): no significant binding |
| CCCCCC/C=C\CCCCC/C=C/C(=O)N[C@H]1[C@H](O[C@H]2[C@H](O)[C@@H](NC(C)=O)[C@H](O[C@H]3[C@H](O)[C@@H](NC(C)=O)[C@H](O[C@H]4[C@H](O)[C@@H](NC(C)=O)C(O)O[C@@H]4CO)O[C@@H]3CO)O[C@@H]2CO)O[C@H](COC(C)=O)[C@@H](O)[C@@H]1O (stereo partly shown) [nodH-LCO-IV] | Dramatically reduced binding | Dramatically reduced binding |  | reduction of binding to NFP-ECD compared to wild type S. meliloti LCO-IV ([1]; BLI): more than 21 fold |
| CCCCCC/C=C\CCCCC/C=C/C(=O)N[C@H]1[C@H](O[C@H]2[C@H](O)[C@@H](NC(C)=O)[C@H](O[C@H]3[C@H](O)[C@@H](NC(C)=O)[C@H](O[C@H]4[C@H](O)[C@@H](NC(C)=O)C(O)O[C@@H]4COS(=O)(=O)O)O[C@@H]3CO)O[C@@H]2CO)O[C@H](CO)[C@@H](O)[C@@H]1O (stereo partly shown) [nodL-LCO-IV] | Dramatically reduced binding | Dramatically reduced binding |  | reduction of binding to NFP-ECD compared to wild type S. meliloti LCO-IV ([1]; BLI): more than 10 fold |
| B1 |  |  | 5 nodules per plant |  |
| B2 |  |  | did not affect nodulation |  |
| B3 |  |  | did not affect nodulation |  |
| B4 |  |  | did not affect nodulation |  |
| B5 |  |  | did not affect nodulation |  |
| B6 |  |  | did not develop any nodules | complementation (nodulation) (Medicago nfp mutants; S. medicae inoculation, 28 dpi, FIG. 6B): complements poorly |
